From BindingDB's records for doi:10.1016/S0960-894X(96)00606-3 (1997) come the findings set out here.

The IC50 is the concentration that gives 50% inhibition. Higher therefore signals weaker potency.

The test concerns the target T1, C5a anaphylatoxin chemotactic receptor 1 (Homo sapiens, UniProt P21730).
T1 sequence (P21730 whole entry): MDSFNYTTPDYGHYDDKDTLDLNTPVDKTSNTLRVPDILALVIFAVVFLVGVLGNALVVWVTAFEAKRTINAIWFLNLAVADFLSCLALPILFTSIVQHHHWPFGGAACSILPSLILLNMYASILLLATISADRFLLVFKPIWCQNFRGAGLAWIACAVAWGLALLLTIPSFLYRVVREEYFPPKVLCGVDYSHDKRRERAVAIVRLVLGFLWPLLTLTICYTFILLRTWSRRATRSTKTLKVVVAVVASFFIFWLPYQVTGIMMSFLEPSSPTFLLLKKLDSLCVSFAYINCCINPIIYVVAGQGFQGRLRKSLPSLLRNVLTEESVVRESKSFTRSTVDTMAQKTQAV
In words: ChEBML_41457. From the text: Tested for its ability to compete with [125I]C5a for binding to C5a anaphylatoxin chemotactic receptor of human neutrophil membrane preparations
Molecule `NCCCCc1[nH]c(=O)n([C@H](CC2CCCCC2)C(=O)N2CCC3(CCc4ccccc43)CC2)c1O` [5-(4-aminobutyl)-3-[1-cyclohexylmethyl-2-oxo-2-spiro[2,3-dihydro-1H-indene-1,4'-(hexahydropyridine)]-1-yl-(1R)-ethyl]-(5R)-tetrahydro-1H-2,4-imidazoledione] had an IC50 of 4 µM.

Regarding `N=C(N)NCCCc1[nH]c(=O)n([C@H](Cc2ccc(O)cc2)C(=O)N2CCC3(CCc4ccccc43)CC2)c1O` [5-[3-amino(imino)methylaminopropyl]-3-[1-(4-hydroxybenzyl)-2-oxo-2-spiro[2,3-dihydro-1H-indene-1,4'-(hexahydropyridine)]-1-yl-(1R)-ethyl]-(5R)-tetrahydro-1H-2,4-imidazoledione], the IC50 was 4 µM. The figure for `CCC[C@H](C(=O)N1CCC2(CCc3ccccc32)CC1)n1c(O)c(CCCNC(=N)N)[nH]c1=O` [5-[3-amino(imino)methylaminopropyl]-3-[1-spiro[2,3-dihydro-1H-indene-1,4'-(hexahydropyridine)]-1-ylcarbonyl-(1R)-butyl]-(5R)-tetrahydro-1H-2,4-imidazoledione] is 3 µM; for `N=C(N)NCCCc1[nH]c(=O)n(C(CCc2ccccc2)C(=O)N2CCC3(CCc4ccccc43)CC2)c1O` [5-[3-amino(imino)methylaminopropyl]-3-[3-phenyl-1-spiro[2,3-dihydro-1H-indene-1,4'-(hexahydropyridine)]-1-ylcarbonylpropyl]-(5R)-tetrahydro-1H-2,4-imidazoledione] it is 3 µM.
